In data set [1] the target is T1, human adenosine A2A receptor (Homo sapiens, UniProt P29274).
T1 construct: expressed in transfected cells; host or cells: CHO cells, semliki forest virus expression system; washed membrane pellet used
Nature of the data set: [3H]-SCH-58261 binding assay, human adenosine A2A receptor (CHO cell membranes, SPA). As for the experimental part:
Human Adenosine A2A Receptor
The human adenosine A2A receptor was recombinantly expressed in chinese hamster ovary (CHO) cells using the semliki forest virus expression system. Cells were harvested, washed twice by centrifugation, homogenised and again washed by centrifugation. The final washed membrane pellet was suspended in a Tris (50 mM) buffer containing 120 mM NaCl, 5 mM KCl, 2 mM CaCl2 and 10 mM MgCl2 (pH 7.4) (buffer A). The [^3H]-SCH-58261 (Dionisotti et al., 1997, Br J Pharmacol 121, 353; 1 nM) binding assay was carried out in 96-well plates in the presence of 2.5 μg of membrane protein, 0.5 mg of Ysi-poly-1-lysine SPA beads and 0.1 U adenosine deaminase in a final volume of 200 μl of buffer A. Non-specific binding was defined using xanthine amine congener (XAC; 2 μM). Compounds were tested at 10 concentrations from 10 μM–0.3 nM. All assays were conducted in duplicate and repeated at least two times. Assay plates were incubated for 1 hour at room temperature before centrifugation and then bound ligand determined using a Packard Topcount scintillation counter. IC50 values, the concentration where 50% of the […] binding is displaced, were calculated using a non-linear curve fitting program and Ki values calculated using the Cheng-Prussoff equation.

Setting [2] is: displacement of [3H]-SCH-58261 (1 nM), recombinant receptor in CHO membranes, Ki by Cheng-Prussoff equation, read-out: hA2 (pKi) (converted).

Read-outs that look alike come from different tables or passages of the source.

T1 sequence (P29274 whole entry): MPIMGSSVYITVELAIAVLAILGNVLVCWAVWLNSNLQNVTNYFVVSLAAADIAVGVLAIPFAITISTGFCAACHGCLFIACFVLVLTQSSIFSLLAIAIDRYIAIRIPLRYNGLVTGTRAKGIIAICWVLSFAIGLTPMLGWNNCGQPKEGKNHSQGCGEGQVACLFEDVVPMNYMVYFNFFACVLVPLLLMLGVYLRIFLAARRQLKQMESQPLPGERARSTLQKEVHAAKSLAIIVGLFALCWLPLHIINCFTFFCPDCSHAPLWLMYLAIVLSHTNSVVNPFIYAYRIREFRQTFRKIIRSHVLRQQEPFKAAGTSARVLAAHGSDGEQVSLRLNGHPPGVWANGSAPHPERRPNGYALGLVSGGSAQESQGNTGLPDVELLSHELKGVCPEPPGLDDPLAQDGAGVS

Regarding `COc1ccc(N2CCOCC2)c2sc(NC(=O)N3CCCOCC3)nc12` [Example 28, Oxazepane-4-carboxylic acid (4-methoxy-7-morpholin-4-yl-benzothiazol-2-yl)-amide], the “hA2 (pKi)” value in data set [1] (displacement of [3H]-SCH-58261 (1 nM), recombinant receptor in CHO membranes, Ki by Cheng-Prussoff equation) is recorded as 7.9.
In the case of `COc1ccc(N2CCOCC2)c2sc(NC(=O)N3CCC(CO)(Cc4ccccc4)CC3)nc12` [Example 8, 4-Benzyl-4-hydroxymethyl-piperidine-1-carboxylic acid (4-methoxy-7-morpholin-4-yl-benzothiazol-2-yl)-amide], the Ki in data set [1] (setting [2]) is 3.98 nM.
Still for that read-out and setting: the result for `COc1ccc(N2CCOCC2)c2sc(NC(=O)N(C)C3CCCCC3)nc12` [Example 9, 1-Cyclohexyl-3-(4-methoxy-7-morpholin-4-yl-benzothiazol-2-yl)-1-methyl-urea] reads 12.6 nM.
In the case of `COc1ccc(N2CCOCC2)c2sc(NC(=O)N(C)[C@H]3CC[C@@H](O)CC3)nc12` [Example 29, (cis)-1-(4-Hydroxy-cyclohexyl)-3-(4-methoxy-7-morpholin-4-yl-benzothiazol-2-yl)-1-methyl-urea], the melting point – broadly, the temperature of the solid-liquid transition – fell in the range of 169 to 171 °C. The Ki in data set [1] (setting [2]) was 12.6 nM.
For the compound `COc1ccc(N2CCOCC2)c2sc(NC(=O)N3CC4CC[C@@](C)(C3)C4(C)C)nc12` [Example 26, (1R)-1,8,8-Trimethyl-3-aza-bicyclo[3.2.1]octane-3-carboxylic acid (4-methoxy-7-morpholin-4-yl-benzothiazol-2-yl)-amide], the melting point fell in the range of 185 to 189 °C.
Turning to `COc1ccc(N2CCOCC2)c2sc(NC(=O)N3C[C@@H]4C[C@H]3CO4)nc12` [Example 1, (1S,4S)-2-Oxa-5-aza-bicyclo[2.2.1]heptane-5-carboxylic acid (4-methoxy-7-morpholin-4-yl-benzothiazol-2-yl)-amide], in data set [1] (setting [2]), the Ki was 3.16 nM.
Still for that read-out and setting: the result for `COc1ccc(N2CCOCC2)c2sc(NC(=O)NC3CCOCC3)nc12` [Example 2, 1-(4-Methoxy-7-morpholin-4-yl-benzothiazol-2-yl)-3-(tetrahydro-pyran-4-yl)-urea] reads 12.6 nM; that for `COc1ccc(N2CCOCC2)c2sc(NC(=O)N3CCC4(CCCCC4)CC3)nc12` [Example 10, 3-Aza-spiro[5.5]undecane-3-carboxylic acid (4-methoxy-7-morpholin-4-yl-benzothiazol-2-yl)-amide], 10 nM; that for `Cc1ccc(CC2(O)CCN(C(=O)Nc3nc4c(Cl)ccc(N5CCCCC5)c4s3)CC2)cc1` [Example 20, 4-Hydroxy-4-(4-methyl-benzyl)-piperidine-1-carboxylic acid (4-chloro-7-piperidin-1-yl-benzothiazol-2-yl)-amide], 3.16 nM.
The same measure, in the same setting: the result for `COc1ccc(N2CCOCC2)c2sc(NC(=O)N3CCN(c4ccccc4)CC3)nc12` [Example 7, 4-Phenyl-piperazine-1-carboxylic acid (4-methoxy-7-morpholin-4-yl-benzothiazol-2-yl)-amide] reads 7.94 nM; that for `COc1ccc(N2CCOCC2)c2sc(NC(=O)N3CCC4(CCNC4=O)CC3)nc12` [Example 5, 1-Oxo-2,8-diaza-spiro[4.5]decane-8-carboxylic acid (4-methoxy-7-morpholin-4-yl-benzothiazol-2-yl)-amide], 6.31 nM; that for `COc1ccc(N2CCOCC2)c2sc(NC(=O)N3CCC([C@H](C)O)CC3)nc12` [Example 15, (S)-4-(1-Hydroxy-ethyl)-piperidine-1-carboxylic acid (4-methoxy-7-morpholin-4-yl-benzothiazol-2-yl)-amide], 7.94 nM.
Turning to `COc1ccc(N2CCOCC2)c2sc(NC(=O)N3C[C@@H]4CC[C@H]3C4)nc12` [Example 33, (1S,4R)-2-Aza-bicyclo[2.2.1]heptane-2-carboxylic acid (4-methoxy-7-morpholin-4-yl-benzothiazol-2-yl)-amide], the melting point turned out to be 149 °C. In addition, the Ki in data set [1] (setting [2]) is 5.01 nM.
As to `COc1ccc(N2CCOCC2)c2sc(NC(=O)N(C)C3CCC(F)(F)CC3)nc12` [Example 24, 1-(4,4-Difluoro-cyclohexyl)-3-(4-methoxy-7-morpholin-4-yl-benzothiazol-2-yl)-1-methyl-urea], the melting point was 189 to 192 °C. Further, in data set [1] (setting [2]), the Ki was 10 nM.
For `COc1ccc(N2CCOCC2)c2sc(NC(=O)N(C)[C@H]3CC[C@H](O)CC3)nc12` [Example 27, (trans)-1-(4-Hydroxy-cyclohexyl)-3-(4-methoxy-7-morpholin-4-yl-benzothiazol-2-yl)-1-methyl-urea], in that order: 158 to 162 °C and 12.6 nM.
Consider `O=C(Nc1nc2c(Cl)ccc(N3CCCCC3)c2s1)NC1CCCCC1` [Example 21, 1-(4-Chloro-7-piperidin-1-yl-benzothiazol-2-yl)-3-cyclohexyl-urea], for which the Ki in data set [1] (setting [2]) is 2.51 nM.
Consider `COc1ccc(N2CCOCC2)c2sc(NC(=O)N(C)[C@H]3CC[C@@H](F)CC3)nc12` [Example 23, 1-(4cis-Fluoro-cyclohexyl)-3-(4-methoxy-7-morpholin-4-yl-benzothiazol-2-yl)-1-methyl-urea], for which the melting point fell in the range of 201 to 204 °C. Further, the Ki in data set [1] (setting [2]) is 7.94 nM.
For `COc1ccc(N2CCOCC2)c2sc(NC(=O)N(C)C3CCOCC3)nc12` [Example 34, 3-(4-Methoxy-7-morpholin-4-yl-benzothiazol-2-yl)-1-methyl-1-(tetrahydro-pyran-4-yl)-urea], in that order: 240 to 242 °C and 15.8 nM.
Consider `COc1ccc(N2CCOCC2)c2sc(NC(=O)N3CC4CCC3CC4)nc12` [Example 12, 2-Aza-bicyclo[2.2.2]octane-2-carboxylic acid (4-methoxy-7-morpholin-4-yl-benzothiazol-2-yl)-amide], for which the Ki in data set [1] (setting [2]) is 2.51 nM.
In data set [1], `COc1ccc(N2CCOCC2)c2sc(NC(=O)N3[C@@H]4CC[C@H]3C[C@@H](O)C4)nc12` [Example 3, 3-endo-Hydroxy-8-aza-bicyclo[3.2.1]octane-8-carboxylic acid (4-methoxy-7-morpholin-4-yl-benzothiazol-2-yl)-amide] showed a Ki of 7.94 nM.
On to `COc1ccc(N2CCOCC2)c2sc(NC(=O)N(C)[C@H]3CC[C@@H](OC)CC3)nc12` [Example 25, (cis)-1-(4-Methoxy-cyclohexyl)-3-(4-methoxy-7-morpholin-4-yl-benzothiazol-2-yl)-1-methyl-urea], for which the melting point is 198 to 200 °C. Further, the Ki in data set [1] (setting [2]) is 20 nM.
As to `COc1ccc(N2CCOCC2)c2sc(NC(=O)N3CCC4(CCN(C)C4=O)CC3)nc12` [Example 4, 2-Methyl-1-oxo-2,8-diaza-spiro[4.5]decane-8-carboxylic acid (4-methoxy-7-morpholin-4-yl-benzothiazol-2-yl)-amide], in data set [1] (setting [2]), the Ki was 6.31 nM.
On the same count and under the same terms, the result for `COc1ccc(N2CCOCC2)c2sc(NC(=O)N3CCC4(CCCC4)CC3)nc12` [Example 11, 8-Aza-spiro[4.5]decane-8-carboxylic acid (4-methoxy-7-morpholin-4-yl-benzothiazol-2-yl)-amide] reads 6.31 nM; that for `COc1ccc(N2CCOCC2)c2sc(NC(=O)N3CCC4(CCCO4)CC3)nc12` [Example 13, 1-Oxa-8-aza-spiro[4.5]decane-8-carboxylic acid (4-methoxy-7-morpholin-4-yl-benzothiazol-2-yl)-amide], 2.51 nM.
`COc1ccc(N2CCOCC2)c2sc(NC(=O)N(C)C3CCCCCC3)nc12` [Example 35, 1-Cycloheptyl-3-(4-methoxy-7-morpholin-4-yl-benzothiazol-2-yl)-1-methyl-urea] gave a melting point of 198 to 200 °C. Further, in data set [1] (setting [2]), the Ki was 12.6 nM.
With `COc1ccc(N2CCOCC2)c2sc(NC(=O)N3CCC([C@@H](C)O)CC3)nc12` [Example 14, (R)-4-(1-Hydroxy-ethyl)-piperidine-1-carboxylic acid (4-methoxy-7-morpholin-4-yl-benzothiazol-2-yl)-amide], the Ki in data set [1] (setting [2]) was 7.94 nM.
`COc1ccc(N2CCOCC2)c2sc(NC(=O)N(C)C3CCCC3)nc12` [Example 36, 1-Cyclopentyl-3-(4-methoxy-7-morpholin-4-yl-benzothiazol-2-yl)-1-methyl-urea]: the melting point lay in the range of 110 to 125 °C. The Ki in data set [1] (setting [2]) was 7.94 nM.
The compound `COc1ccc(N2CCOCC2)c2sc(NC(=O)NC3CCCC3)nc12` [Example 37, 1-Cyclopentyl-3-(4-methoxy-7-morpholin-4-yl-benzothiazol-2-yl)-urea] showed a melting point of 191 to 194 °C. Besides, the Ki in data set [1] (setting [2]) was 7.94 nM.
For `COc1ccc(N2CCCCC2)c2sc(NC(=O)N3CCC4(CCCO4)CC3)nc12` [Example 19, 1-Oxa-8-aza-spiro[4.5]decane-8-carboxylic acid (4-methoxy-7-piperidin-1yl-benzothiazol-2-yl)-amide], the Ki in data set [1] (setting [2]) is 3.98 nM.
Still for that read-out and setting: the result for `COc1ccc(N2CCOCC2)c2sc(NC(=O)N3CCC(CNS(C)(=O)=O)CC3)nc12` [Example 16, 4-(Methanesulfonylamino-methyl)-piperidine-1-carboxylic acid (4-methoxy-7-morpholin-4-yl-benzothiazol-2-yl)-amide] reads 15.8 nM; that for `O=C(Nc1nc2c(Cl)ccc(N3CCCCC3)c2s1)N1CCC(Cc2ccccc2)CC1` [Example 22, 4-Benzyl-piperidine-1-carboxylic acid (4-chloro-7-piperidin-1-yl-benzothiazol-2-yl)-amide], 15.8 nM.

The values are drawn from US7019001B2, “Substituted benzothiazole amide derivatives” (Hoffman-La Roche Inc., priority 2001, dated 2006).
